{"source": "paper PMC6832551", "about": "“An Antiviral Peptide from Alopecosa nagpag Spider Targets NS2B–NS3 Protease of Flaviviruses” (Toxins, 2019)", "origin": "cited, not measured here", "system": "ZIKV", "from_the_text": "Despite their differences in pathogeneses, DENV and ZIKV are representative, emerging mosquito-borne flaviviruses with similar replication cycles which infect millions of people annually. The non-structural proteins of flaviviruses are important for virus replication and assembly. It has been established that NS2B–NS3 forms the viral protease and NS3 alone serves as the dsRNA helicase. Recently, the NS2B–NS3 protease became an attractive antiviral target, and many of its inhibitors have been reported as potential antivirals. Protease inhibitors are ubiquito ...", "note": "Structures can show the parent of a compound that is named as a salt.", "data": [{"smiles": "CC(C)C[C@H]1C(=O)N2CCC[C@H]2[C@]2(O)O[C@](NC(=O)[C@@H]3C=C4c5cccc6[nH]c(Br)c(c56)C[C@H]4N(C)C3)(C(C)C)C(=O)N12", "note": "[bromocriptine, Bromocriptine mesylate]", "values": [{"measurement": "ZIKV viral replication (in words)", "result": "confirmed to inhibit ZIKV protease activity and viral replication"}]}]}
